Results on five compounds are retold here after ChEMBL document CHEMBL1149864, “Benzofused N-substituted cyclic enediynes: activation and DNA-cleavage potential” (Bioorg Med Chem, 2008).

Series [1] relates to Escherichia coli. Briefly: Induction of Escherichia coli pBR322 DNA cleavage assessed as generation of form 3 at 20 uM at pH 8.0 after 48 hrs.
In series [2] the test system is Escherichia coli. In words: Induction of Escherichia coli pBR322 DNA cleavage assessed as generation of form 3 at 20 uM at pH 8.0 after 24 hrs.
The nature of series [3]: Chemical stability assessed as half life at 70 degC. Type of series: physicochemical.
A short description of series [4]: Chemical stability assessed as half life at 60 degC. Type of series: physicochemical.
Series [5] in a line: Chemical stability assessed as half life at 50 degC. Type of series: physicochemical.
The subject of series [6] is Escherichia coli. Briefly: Induction of Escherichia coli pBR322 DNA cleavage assessed as generation of form 3 at 20 uM at pH 8.0 after 12 hrs.
The subject of series [7] is Escherichia coli. Briefly: Induction of Escherichia coli pBR322 DNA cleavage at 0.4 uM at pH 8.5 after 24 hrs.
Series [8] concerns Escherichia coli. Briefly: Induction of Escherichia coli pBluescript SK+ DNA cleavage assessed as generation of form 3 at 20 uM at pH 8.0 after 48 hrs.
Series [9] in a line: Chemical stability assessed as half life at 30 degC. The format is physicochemical.
The test system of series [10] is Escherichia coli. Briefly: Induction of Escherichia coli pBR322 DNA cleavage at 0.4 uM at pH 7.5 after 24 hrs.
The subject of series [11] is Escherichia coli. In words: Induction of Escherichia coli pBR322 DNA cleavage at 0.4 uM at pH 8.0 after 24 hrs.
Series [12] relates to Escherichia coli. In words: Induction of Escherichia coli pBluescript SK+ DNA cleavage assessed as generation of form 3 at 20 uM at pH 8.0 after 12 hrs.

Usually half-life stands for how long it takes for the measured level to halve.

Each structure is given as a SMILES string. The source made the active and inactive calls. No cut-off for these calls is given here.

Regarding `O=[N+]([O-])c1ccc2c(c1)C#CCCNCC#C2`, the outcome in series [1] and in [2] was Active.

Turning to `O=[N+]([O-])c1ccc(S(=O)(=O)N2CC#Cc3ccc([N+](=O)[O-])cc3C#CCC2)cc1`, the half-life in series [3] is 12 h; in [4], 138 h.

As to `Cc1ccc(S(=O)(=O)N2CC#Cc3ccccc3C#CCC2)cc1`, the half-life in series [3] is 48 h.

`C1#Cc2ccccc2C#CCNCC1.Cc1ccc(S(=O)(=O)O)cc1`: the half-life in series [5] is 130 h; in [9], 770 h. For the same compound, the result in series [6], in [7], in series [2], in [10] and in [11] was Active. Moreover, the outcome in series [8] and in series [12] was inactive.

Take `O=[N+]([O-])c1ccc(S(=O)(=O)N2CC#Cc3cc([N+](=O)[O-])c([N+](=O)[O-])cc3C#CCC2)cc1`: the half-life in [3] is 9.5 h.
